Source: US20250339396A1 (COSMAS THERAPEUTICS DEVELOPMENT INC., priority 2021, published 2025)

System: neuropathic (SNI) rats
Test: Sleep restoration in neuropathic rats, 24 h EEG/EMG recordings (REM, NREM, wakefulness, sleep fragmentation index)
Type: in vivo, rat
Details: for NREM 24 h, mean difference (Bonferroni's multiple comparison test) / REM 24 h, mean difference (Bonferroni's multiple comparison test) / Wake 24 h, mean difference (Bonferroni's multiple comparison test) / SFI (sleep fragmentation index), mean difference (Bonferroni's multiple comparison test): Prodrug D 150 mg/kg, neuropathic (SNI) rats; for NREM 24 h, mean difference (Bonferroni's multiple comparison test) / REM 24 h, mean difference (Bonferroni's multiple comparison test) / Wake 24 h, mean difference (Bonferroni's multiple comparison test): 24 h EEG/EMG; for SFI (sleep fragmentation index), mean difference (Bonferroni's multiple comparison test): awakenings in 24 h divided by total sleep time in hours
Description: Wistar rats weighted 120 g at the beginning of the experiment were housed under standard conditions, at a constant temperature of 22° C., with food and water provided ad libitum and under a 12 h light/dark cycle (lights on at 7:00 AM; lights off at 7:00 PM). All experimental procedures and surgeries were approved by the Animal Ethics Committee of local institutional committee for animal use and care (McGill University, Canada), following the Canadian Institute of Health Research for animal care and scientific use.
Only animals presenting allodynia (mean 2.5 gr) 14 days after SNI surgery, were then implanted EEG/EMG electrode, for 24 hours electrical recording and non-allodynic rat were excluded.
Sham and neuropathic rats were deeply anesthetized with isoflurane (5% for induction, 2-3% for maintenance) and placed in a stereotaxic frame. For EEG monitoring, three stainless-steel epidural electrodes were positioned through 1.5 mm burr holes at-2 mm anteroposterior (AP) and −3 mm lateral (L), −4.5 mm AP and +3 mm L, −7 mm AP and […] according to bregma (Paxinos and Watson 2006). For the EMG signal, three flexible stainless-steel wires were implanted into the neck muscle. Then, wires and connectors were fixed to the skull using dental acrylic (Coltene/Whaledent Inc. USA). Rats were given 5 days to recovery (Ochoa-Sanchez, et al., 2011).
24-h after electrode implantation surgery, rats were placed for habituation in the recording room from 12:00 PM to 9:00 PM on a daily basis. During this time, the rats were placed in the recording chambers and connected to a flexible 6-flat cable (3M Scotchflex®), in a freely moving manner. No recordings were performed, but tolerance to the cable, and sleep behavior were observed. The day 5 of habituation, recordings were performed for 24 h, starting at 6:00 PM.
Prodrug D (150 mg/kg) was dissolved in 40% PEG 400 and 60% water (about 2.5 mL average for rats by gavage) and was administered at 6 am and 6 pm.
The amplification of EEG/EMG signals were at the total gain of 10.000. EEG/EMG signals were digitalized by a CED 1401 interface system, processed on-line, and analyzed off-line by Spike 2 software, in parallel with analog-to-digital samplings of amplified (Grass, P55) polygraphic signals (EEG; sampling rate, 100 or 200 Hz). Consecutive 10-s epochs were subjected to a Fast Fourier Transform (FFT) and EEG power spectra density was computed in the frequency range of 0-64 Hz (Ochoa-Sanchez, R et al., 2011).
Analysis was made offline using the spike 2 software (Cambridge). Three classical sleep stages are identified using EEG and EMG recordings. Wakefulness was determined by a sustained activity of EMG and low amplitude and high frequency of EEG. NREM (non-rapid eyes movement) sleep was characterized by high amplitude […] (1-4 Hz) and low muscle activity. REM (rapid eyes movement) sleep was marked with muscle atonia as observed in EMG and low amplitude […] in EEG (6-11). Only period longer than 10 seconds was marked for further analysis of awake, REM and NREM sleep, in order to eliminate the transitional period such as drowsiness (Ochoa-Sanchez, R et al., 2011).
Given the changes induced by the neuropathy on sleep parameters, we then calculate the sleep fragmentation index (SFI). SFI was calculated as the total number of awakenings in 24 h divided by the total sleep time in hours.
Data analysis was done using GraphPad Prism statistical software version 5.04 […]. One-way ANOVA was performed for 24 h time of REM, NREM and wakefulness as well as sleep fragmentation index. Post-hoc analyses were performed using the Bonferroni t-test comparisons. All data are expressed as mean±SEM. P<0.05 was considered significant.

[1] = SNI rats, 150 mg/kg by gavage at 6 am and 6 pm

For CC(=O)N(CCN(c1ccc(F)cc1)c1cccc(Br)c1)C(=O)OCOC(=O)CN.Cl [Prodrug D, ((acetyl(2-((3-bromophenyl)(4-fluorophenyl)amino)ethyl)carbamoyl)oxy)methyl 2-aminoacetate hydrochloride], the “NREM 24 h, mean difference (Bonferroni's multiple comparison test)” value (Control vs SNI + Prodrug D) was −236.5, the “REM 24 h, mean difference (Bonferroni's multiple comparison test)” value (Control vs SNI + Prodrug D) was −107 and the “Wake 24 h, mean difference (Bonferroni's multiple comparison test)” value (Control vs SNI + Prodrug D) was 343.4. The “SFI (sleep fragmentation index), mean difference (Bonferroni's multiple comparison test)” value (Control vs SNI + Prodrug D) was 0.2758, the “REM time, NREM time and time in wakefulness during 24 h” value [1] was “restore all the three parameters” and the “sleep fragmentation index (SFI)” value [1] was “reverse the fragmentation”. For the same compound, the “NREM 24 h, mean difference (Bonferroni's multiple comparison test)” value (Sham vs SNI + Prodrug D) was −62.39, the “REM 24 h, mean difference (Bonferroni's multiple comparison test)” value (Sham vs SNI + Prodrug D) was −44.39 and the “Wake 24 h, mean difference (Bonferroni's multiple comparison test)” value (Sham vs SNI + Prodrug D) was 106.8. For the same compound, the “SFI (sleep fragmentation index), mean difference (Bonferroni's multiple comparison test)” value (Sham vs SNI + Prodrug D) was 0.01886.
